Experimental findings from ChEMBL document CHEMBL1201862, “PubChem BioAssay data set” (2004) are described below.

SMILES strings stand for the structures.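 48-hour exposure; five concentrations; linearly interpolated endpoints. GI50: concentration for 50% inhibition of growth.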 Active and inactive are the calls of the source. No stated cut-off is given here; in the data, active = GI50 up to about 1.1 µM and inactive = higher.

What all share (experiment): inhibition of tumour cell growth, NCI panel, 48 h
Assay [1] deals with HT-29.
Assay [2] concerns HCT-116.
In assay [3] the test system is NCI-H522.
Assay [4] relates to SN12C.
The subject of assay [5] is RPMI-8226.
Assay [6] has as its system UACC-257.
Assay [7] has as its system SW-620.
Assay [8] concerns SR.
In assay [9] the test system is OVCAR-8.
In assay [10] the test system is UACC-62.
Assay [11] concerns HOP-62.
Assay [12] concerns LOX IMVI.
Assay [13] has as its system IGROV-1.
The subject of assay [14] is SF-268.
The test system of assay [15] is SNB-19.
For assay [16], the system named is SK-MEL-5.
In assay [17] the test system is EKVX.
In assay [18] the test system is NCI-H23.
Assay [19] has as its system SF-539.
Assay [20] deals with RXF 393.

As to `CN1C(=O)c2ccccc2OC12C=Cc1ccc(O)cc1O2` (configuration not stated), the GI50 in assay [1] is 22.3 µM (inactive); in assay [2] it was 25.8 µM (inactive); in assay [3] it was 20.4 µM (inactive); in assay [4], 26.7 µM (inactive); in assay [5], 30.3 µM (inactive); in assay [6], 15.6 µM (inactive). In addition, the GI50 in assay [7] was 26.6 µM (inactive); in assay [8] it was < 0.01 µM (active); in assay [9] it was 12.7 µM (inactive); in assay [10] it was 28.8 µM (inactive); in assay [11] it was 13.3 µM (inactive); in assay [12] it was 9.62 µM (inactive). In addition, the GI50 in assay [13] was 28.2 µM (inactive); in assay [14], 26.9 µM (inactive); in [15] it was 20.4 µM (inactive); in assay [16], 17.3 µM (inactive); in assay [17], 18.6 µM (inactive); in assay [18], 28.2 µM (inactive).
With `COc1ccc(/C=C2\NC(=S)N(CN3CCCCC3)C2=O)cc1`, the GI50 in assay [1] is 18.3 µM (inactive); in assay [2], 34.6 µM (inactive); in assay [3], 30.7 µM (inactive); in assay [4], > 100 µM (inactive); in assay [5], 27.1 µM (inactive); in assay [7], 29.3 µM (inactive). In addition, the GI50 in [8] was 38.1 µM (inactive); in assay [9], 15.4 µM (inactive); in assay [10] it was 44.7 µM (inactive); in [11] it was > 100 µM (inactive); in assay [12], 30.5 µM (inactive); in assay [13] it was 44.2 µM (inactive). The GI50 is 18.2 µM (inactive) in assay [14]; 37 µM (inactive) in [15]; 36.1 µM (inactive) in assay [16]; 34.4 µM (inactive) in assay [17]; 77.1 µM (inactive) in assay [18].
Take `CCOC(=O)c1c(CN2CCOCC2)n(Cc2ccccc2)c2c1cc(O)c1nc(C)c(C)nc12`: the GI50 in [1] was > 100 µM (inactive); in assay [2], 38.3 µM (inactive); in [19], 30.8 µM (inactive); in assay [4], > 100 µM (inactive); in [5] it was 30.3 µM (inactive); in [6], > 100 µM (inactive). Besides, the GI50 in assay [7] was > 100 µM (inactive); in assay [8], 44 µM (inactive); in assay [9] it was 15.5 µM (inactive); in assay [10] it was 38.7 µM (inactive); in assay [11], 21.3 µM (inactive); in assay [12] it was 46.6 µM (inactive). Besides, the GI50 in [14] was 21.8 µM (inactive); in assay [15], 38.2 µM (inactive); in assay [16], 22.6 µM (inactive); in assay [17], > 100 µM (inactive); in assay [18], 35.5 µM (inactive).
Consider `Cc1ccc(Nc2n[nH]c(=S)s2)cc1`, for which the GI50 in [1], in [2], in assay [19], in assay [4], in [5] and in assay [6] was > 100 µM (inactive) each time. The GI50 in assay [7], in assay [8], in assay [9], in [10], in [11] and in assay [12] was > 100 µM (inactive) each time. Also, the GI50 in [20] is > 100 µM (inactive); in assay [14] it was > 100 µM (inactive); in [15], > 100 µM (inactive); in [16], 99.1 µM (inactive); in assay [17], > 100 µM (inactive); in [18] it was > 100 µM (inactive).
Turning to `CC(C)CCCC(C)[C@H]1CCC2[C@@H]3CCC4Cc5nc6c(nc5C[C@]4(C)C3CC[C@@]21C)CC1CC[C@@H]2C(CC[C@@]3(C)C2CC[C@@H]3C(C)CCCC(C)C)[C@@]1(C)C6` (some centres not stated), the GI50 in [1], in [2], in assay [19], in assay [4], in assay [5] and in assay [6] was > 100 µM (inactive) in each case. In addition, the GI50 in assay [7], in assay [8], in assay [9], in assay [10], in assay [11] and in [12] was > 100 µM (inactive) throughout. For the same compound, the GI50 in assay [13], in assay [20], in assay [14], in assay [15], in assay [16] and in assay [17] was > 100 µM (inactive) in each case. In addition, the GI50 in assay [18] is > 100 µM (inactive).
For `Oc1ccc(-c2nc(-c3ccc4ccccc4n3)c(-c3ccc(F)cc3)[nH]2)cc1`, the GI50 in assay [1] is 7.55 µM (inactive); in assay [2], 12.9 µM (inactive); in assay [4], 15.3 µM (inactive); in [5], 5.62 µM (inactive); in [6] it was 13.5 µM (inactive); in assay [7] it was 14.3 µM (inactive). Moreover, the GI50 in assay [8] is 6.25 µM (inactive); in assay [9] it was 12.5 µM (inactive); in [10], 11.5 µM (inactive); in assay [11] it was 18 µM (inactive); in assay [12], 10.6 µM (inactive); in [13] it was 13 µM (inactive). The GI50 in assay [20] is 15.2 µM (inactive); in assay [14] it was 13 µM (inactive); in assay [15] it was 17.3 µM (inactive); in [16], 2.12 µM (inactive); in assay [17], 17.8 µM (inactive); in [18], 12.5 µM (inactive).
As for `O=C1/C(=C/c2ccc(Cl)cc2)CCC1CCN1CCOCC1` (configuration not stated), the GI50 in assay [1] is 32.8 µM (inactive); in [2], 53 µM (inactive); in assay [19], > 100 µM (inactive); in assay [4], 72.1 µM (inactive); in assay [5], 23.8 µM (inactive); in [6], > 100 µM (inactive). Moreover, the GI50 in [7] was > 100 µM (inactive); in [8] it was 26.1 µM (inactive); in assay [9], > 100 µM (inactive); in assay [10], > 100 µM (inactive); in assay [11], 72.1 µM (inactive); in [12] it was 39.8 µM (inactive). The GI50 in assay [13] is > 100 µM (inactive); in [20] it was 47.9 µM (inactive); in assay [14], 54.3 µM (inactive); in assay [15], > 100 µM (inactive); in assay [16], 55.5 µM (inactive); in assay [17], > 100 µM (inactive). Moreover, the GI50 in [18] is 86.1 µM (inactive).
Turning to `COc1cccc2c1C(=O)c1c(O)c3c(c(O)c1C2=O)C[C@@](O)(C(=O)CO)CC3OC1CC(NCCOCC(OC(C)=O)OC(C)=O)C(O)C(C)O1` (some centres not stated), the GI50 in [1], in assay [19], in [4], in assay [5], in [6] and in [7] was < 0.01 µM (active) in each case. The GI50 in assay [8] was < 0.01 µM (active); in [9] it was < 0.01 µM (active); in assay [10], 0.00498 µM (active); in assay [11], 0.00382 µM (active); in assay [12] it was 0.00598 µM (active); in [13], < 0.01 µM (active). Besides, the GI50 was < 0.01 µM (active) in assay [20]; < 0.01 µM (active) in assay [14]; 0.00782 µM (active) in assay [15]; < 0.01 µM (active) in [16]; < 0.01 µM (active) in assay [17]; < 0.01 µM (active) in [18].
Take `Cn1c(=O)cc2[nH]c3ccccc3n2c1=O`: the GI50 was 49.3 µM (inactive) in assay [1]; > 10 µM (inactive) in assay [2]; 20.3 µM (inactive) in [19]; > 10 µM (inactive) in [4]; > 100 µM (inactive) in assay [5]; > 100 µM (inactive) in [6]. The GI50 in assay [7] was 22.7 µM (inactive); in [8], > 100 µM (inactive); in assay [9], 43.8 µM (inactive); in [10], > 100 µM (inactive); in assay [11], > 100 µM (inactive); in [12], 20.2 µM (inactive). For the same compound, the GI50 was > 100 µM (inactive) in assay [13]; 28.8 µM (inactive) in assay [20]; > 100 µM (inactive) in [14]; > 100 µM (inactive) in assay [15]; > 100 µM (inactive) in assay [16]; > 100 µM (inactive) in assay [17]. For the same compound, the GI50 in assay [18] was > 100 µM (inactive).
In the case of `C[C@@]1(CO)[C@H](O)CC[C@@]2(C)[C@H]1CC[C@H]1C[C@@H]3C[C@@]12CC[C@@]3(O)COC(=O)CN`, the GI50 in assay [1] was 9.25 µM (inactive); in assay [5] it was 6.56 µM (inactive); in assay [6], 33.9 µM (inactive); in [8] it was 0.811 µM (active); in assay [10], 2.32 µM (inactive); in assay [11], 14 µM (inactive). In addition, the GI50 in assay [12] is 5.57 µM (inactive); in assay [14] it was 9.29 µM (inactive); in assay [16] it was 11.2 µM (inactive); in [17] it was 16.4 µM (inactive); in [18], 2.08 µM (inactive).
Take `O=C(CC1Sc2ccccc2NC1=O)Nc1cccc(Cl)c1` (configuration not stated): the GI50 in assay [1] is 57.3 µM (inactive); in assay [2], 68.5 µM (inactive); in assay [19], 72.9 µM (inactive); in assay [4], 48.2 µM (inactive); in assay [5], 21.7 µM (inactive); in [6], > 100 µM (inactive). The GI50 in [7] was 34.4 µM (inactive); in assay [8], 34 µM (inactive); in [9] it was 26.2 µM (inactive); in assay [10], 28.3 µM (inactive); in [12], 20.3 µM (inactive); in [13], 40.9 µM (inactive). The GI50 is 33.3 µM (inactive) in assay [20]; 34.9 µM (inactive) in assay [14]; 46.9 µM (inactive) in assay [15]; 40.1 µM (inactive) in assay [16]; 22.5 µM (inactive) in assay [17]; 55.5 µM (inactive) in assay [18].
